Results from ChEMBL document CHEMBL1126738, “(3SR,4aRS,6RS,8aRS)-6-[2-(1H-tetrazol-5-yl)ethyl]decahydroisoquinoline-3 - carboxylic acid: a structurally novel, systemically active, competitive AMPA receptor antagonist” (J Med Chem, 1993).

Target: Glutamate [NMDA] receptor
Experiment: Inhibitory activity against NMDA receptor using [3H]-CGS- 19755 as radioligand
Type: protein-complex assay

IC50: 12.1 µM
Structure (SMILES): O=C(O)[C@@H]1C[C@H]2C[C@@H](CCc3nn[nH]n3)CC[C@H]2CN1 [TEZAMPANEL ANHYDROUS]
